Results from PMC8960621, “Solution speciation and human serum protein binding of indium(III) complexes of 8-hydroxyquinoline, deferiprone and maltol” (Journal of Biological Inorganic Chemistry, 2022).
Where “and” joins values, the source holds several entries; their conditions need not be identical. Equal entries are not always repeated.

Key:
apo-transferrin (apoTf) [1] = biological target: T1, apo-transferrin (apoTf) (Homo sapiens, UniProt P02787); conditions: similar conditions; cited from earlier work
T1 construct: purchased Sigma-Aldrich T2036
T1 sequence (P02787 20-698): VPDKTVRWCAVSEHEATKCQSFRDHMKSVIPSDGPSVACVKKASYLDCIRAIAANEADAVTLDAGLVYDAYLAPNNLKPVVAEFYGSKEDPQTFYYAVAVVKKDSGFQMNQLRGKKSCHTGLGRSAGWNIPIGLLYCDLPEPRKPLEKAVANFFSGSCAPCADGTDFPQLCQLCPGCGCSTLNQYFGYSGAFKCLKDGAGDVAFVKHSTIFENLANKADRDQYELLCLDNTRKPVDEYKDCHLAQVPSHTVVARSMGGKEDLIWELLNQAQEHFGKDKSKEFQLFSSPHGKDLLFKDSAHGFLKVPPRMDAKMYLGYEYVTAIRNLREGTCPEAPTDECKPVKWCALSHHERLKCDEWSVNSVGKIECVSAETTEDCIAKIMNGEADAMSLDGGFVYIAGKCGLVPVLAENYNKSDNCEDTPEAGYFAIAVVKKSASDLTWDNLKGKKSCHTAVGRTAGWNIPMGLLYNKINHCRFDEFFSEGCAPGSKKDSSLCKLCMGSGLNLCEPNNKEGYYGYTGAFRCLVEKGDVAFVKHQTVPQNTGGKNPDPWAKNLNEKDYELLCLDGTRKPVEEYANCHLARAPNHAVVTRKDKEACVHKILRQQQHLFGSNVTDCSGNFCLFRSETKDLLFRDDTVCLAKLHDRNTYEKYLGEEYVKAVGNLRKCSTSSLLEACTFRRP

[2] = biological target: T2, human serum albumin (HSA) (Homo sapiens, UniProt P02768); experiment: HSA binding by steady-state spectrofluorometry (complex fluorescence and Trp-214 quenching)
T2 construct: purchased Sigma-Aldrich A8763
T2 sequence (P02768 25-609): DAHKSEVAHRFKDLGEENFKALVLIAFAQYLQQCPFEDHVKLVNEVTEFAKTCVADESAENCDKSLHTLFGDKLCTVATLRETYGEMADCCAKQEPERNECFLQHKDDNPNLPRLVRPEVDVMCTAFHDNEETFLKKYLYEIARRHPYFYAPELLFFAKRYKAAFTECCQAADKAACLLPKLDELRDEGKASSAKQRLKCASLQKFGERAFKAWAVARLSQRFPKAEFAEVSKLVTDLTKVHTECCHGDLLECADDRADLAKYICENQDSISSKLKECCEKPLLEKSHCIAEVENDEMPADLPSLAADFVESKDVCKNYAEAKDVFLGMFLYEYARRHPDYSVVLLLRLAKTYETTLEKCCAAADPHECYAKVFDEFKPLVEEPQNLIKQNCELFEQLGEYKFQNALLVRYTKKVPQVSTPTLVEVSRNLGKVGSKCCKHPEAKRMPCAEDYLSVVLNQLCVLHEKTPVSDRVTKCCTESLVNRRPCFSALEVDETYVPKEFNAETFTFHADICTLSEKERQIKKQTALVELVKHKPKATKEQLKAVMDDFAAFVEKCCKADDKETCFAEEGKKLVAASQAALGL
Description: The effect of HSA on the intrinsic fluorescence of InQ3 and InD3 was studied. Similarly to GaQ3 and tris(8-hydroxy-quinolinato)Al(III), InQ3 and InD3 are also fluorescent metal complexes (see Table 2 for λmax values). […] The fluorescence intensity of InQ3 increased in the presence of HSA, and emission intensity values measured at 530 nm show a saturation character plotted against the added HSA equivalents. […] At the same time, UV–vis absorbance spectra of InQ3 are only slightly altered by the binding interaction. Enhanced fluorescence of InQ3, and fast binding kinetics confirm the binding of the non-dissociated metal complex to the protein via intermolecular interactions. Fluorometric data can be excellently fitted with the computer program PSEQUAD [43] assuming a single site model (see Fig. 3), and a conditional binding constant of log K′ = 5.0 ± 0.1 was calculated for the HSA – InQ3 adduct. This constant indicates a moderate affinity of the complex on HSA.
Binding at the site I hydrophobic pocket of HSA can be followed via the selective excitation (λEX = 295 nm) of the single Trp (Trp-214) located close to this site. Trp-214 is sensitive to the binding events taking place at or near this site. The InQ3 complex quenched effectively the fluorescence of HSA, and a quenching constant (K’Q) could be computed based on the measured spectra: log K’Q = 5.1 ± 0.1.
Fluorescence studies were implemented by a Fluoromax (Horiba Jobin Yvon) fluorometer in 1 cm quartz cells. Samples contained 1 μM HSA or (apo)Tf and various protein-to-metal complex (or InCl3) ratios (up to complex/HSA = 1:30) were used. The excitation wavelength was 295 nm and 280 nm for HSA and Tf binding studies, respectively; emission intensity was registered between 300 and 450 nm. Intrinsic fluorescence of complex InQ3 was also followed at λEX = 367 nm, and λEM = 450 – 650 nm. In this setup, the complex concentration was ca. 10 or 20 μM, and protein (HSA, (apo)Tf) concentration was varied between 0 and 130 μM, and residual fluorescence of the proteins were subtracted if it was necessary. […] Computer program PSEQUAD [43] was utilized for the calculation of binding constants (K’) for HSA – InQ3 adducts similar to the approach described in our former works. Calculations were always based on data obtained from at least two independent measurements.

[3] = Fraction of non-dissociated tris-ligand complex at 10 μM, pH 7.40 (UV-vis and speciation calculation); assay type: physicochemical; conditions: pH 7.4, constants determined at 0.20 M KCl
Description: As a first step, interaction of the tris-ligand In(III) complexes with various LMM blood serum components was investigated and compared to that of GaQ3 studied formerly in our research group. The LMM compounds are considered to be more mobile than the high molecular mass components (HMM) such as proteins, and generally their reaction is characterized by faster kinetics. The role of serum compounds might have importance on the distribution of the In(III) complexes since they may be responsible for (partial) displacement of the originally coordinated ligand and they can also form mixed-ligand complexes. […] All the measurements in this work were performed at 25 °C as most of the stability constants used for the modeling calculations published in the literature were determined at this temperature. UV–vis spectra recorded for the tris-ligand complexes at 10 μM concentration (see Fig. S1a for InQ3) in this buffer show 94%, 90% and < 20% non-dissociated InQ3, InD3 and InM3, respectively, which corresponds well to the fractions obtained using the stability constants determined at 0.20 M KCl: 90% (InQ3), 86% (InD3) and 9% InM3 and 6% InM^2+. […]
For the preparation of stock solutions and samples, Milli-Q water was used. Exact concentration of ligand stock solutions was determined via pH-potentiometric titrations (vide infra). […]

apo-transferrin (apoTf) [4] = biological target: T1, apo-transferrin (apoTf); experiment: Kinetics of the reaction with apoTf followed by UV-vis spectrophotometry; assay type: binding; conditions: pH 7.40 (InCl3: 2 equiv.)
Protocol: Firstly, the kinetics of the reaction between apoTf and InCl3 and the complexes was studied by UV–vis spectrophotometry. The reaction of 2 equiv. […] At the same time Harris et al. have observed slow equilibration with InCl3, that was accelerated (to 6 h) in the presence of NTA [18]. In the case of InQ3 and InD3, the progress of apoTf binding could be followed through the ligand bands of the complexes. […] The Ga(III)-analogue GaQ3 interacted within 1 h with apoTf under similar conditions.
For (apo)Tf containing samples, complex concentrations were 20 μM and 0–2.5 equiv. protein was added. Reference spectra for the complexes, ligands and protein were recorded as well. Samples prepared with blood serum contained three-fold diluted serum and 10 μM metal complexes. UV–vis spectra presented in this paper for complexes InD3 or InQ3 are subtracted by the spectrum of reference protein (HSA (apo)Tf or serum) sample in all cases in favour of the better interpretation of the results.

| Structure (SMILES) | time of interaction with apoTf (apo-transferrin (apoTf) [1]) [h] | log K’Q (quenching constant) ([2]; Trp-214 quenching, λEX = 295 nm, pH 7.40) | time of the interaction with HSA ([2]; fluorometry) | log K′ (conditional binding constant, HSA adduct) ([2]; fluorometry of the complex, single site model, pH 7.40, 25 °C) | fraction of tris-ligand complex obtained using the stability constants [3] [%] | time to reach equilibrium in the reaction with apoTf (apo-transferrin (apoTf) [4]) [h] | binding on HSA (fluorescence intensities additive) ([2]; fluorometry, pH 7.40) |
| --- | --- | --- | --- | --- | --- | --- | --- |
| [Ga+3].[O-]c1cccc2cccnc12.[O-]c1cccc2cccnc12.[O-]c1cccc2cccnc12 [GaQ3, Tris(8-Quinolinolato)gallium(III), reference compound] | ≤ 1 |  |  |  |  |  |  |
| [In+3].[O-]c1cccc2cccnc12.[O-]c1cccc2cccnc12.[O-]c1cccc2cccnc12 [InQ3, Tris(8-Quinolinolato)indium(III)] |  | 5.1 ± 0.1 | within a few seconds | 5.0–5.1 and 5.0 ± 0.1 | 90 | 3 to 4 |  |
| Cc1c([O-])c(=O)ccn1C.Cc1c([O-])c(=O)ccn1C.Cc1c([O-])c(=O)ccn1C.[In+3] [InD3] |  |  |  |  | 86 | ~0.5 | no considerable binding |
